Experimental data: US4857549A, “Antitumor compounds” (priority 1988, dated 1989)
pIC50: −log10 of the molar value. Where “and” joins values, the source holds several entries; their conditions need not be identical. Equal values may be shown once. Read-outs that look alike come from different tables or passages of the source.

Tests used:
in vivo = conditions: mouse, ip
[1] = tested on: B16 melanoma cells (highly metastatic subline, F10); experiment: B16 melanoma in vitro cloning (colony forming) assay, 2 hour exposure; format: cell-based; conditions: Table A, Formula (I), read-out: IC50: concentration which inhibits cloning efficiency of B16 melanoma cells by 50%
Description: Initially, the cytotoxic activity of the Formula (I) and Formula (IA) compounds used in the pharmaceutical compositions and methods of treatment of the instant invention was evaluated in vitro using B16 melanoma cells according to the following assay:
B16 melanoma (highly metastatic subline, F10) are used and maintained as monolayer cultures in Minimal Essential Media (Grand Island Biological Co., Grand Island, N.Y. ) supplemented with 10% calf serum, 1% antibiotics in a 5% CO2 humidified incubator at 37° C. Asynchronous populations of cells are harvested and replated to 5000 cells/plate in sterile 60 mm×15 mm petri plates. Plates are incubated overnight to allow attachment of the cells to the plate. Cells are treated with a Formula (I) or Formula (IA) compound or cisplatin under sterile conditions, allowed to react for 2 hours followed by aspiration of medium. Plates are washed one time with 5 ml of phosphate buffered saline (PBS), followed by the addition of 5 ml of fresh media. Plates are incubated for 5 days at 37° in a CO2 incubator. Viability is measured by the ability of a cell to form a colony of greater than 50 cells. Colonies are fixed with 0.5% crystal violet in 95% ethanol. Plates are dried and counted with a Biotran III Automatic Count Totalizer (New Brunswick Scientific Co., Edison, N.J.). Mean and standard deviation of triplicate samples are determined for each drug concentration. The data are analyzed by plotting the log of the survival fraction (number of colonies in drug treated plates/number of colonies in controls) versus the drug concentration.
^(a) concentration which inhibits cloning efficiency of B16 melanoma
cells by 50% on a 2hour exposure.

[2] = tested on: M5076 reticulum cell sarcoma; experiment: ip M5076 reticulum cell sarcoma assay in mice; conditions: for MTD (maximally tolerated dose) / ILS max (maximum increase in lifespan): Table C, ip qD × 10; for MTD (maximally tolerated dose): B6D2F1 female mice; for ILS max (maximum increase in lifespan): ip M5076 sarcoma mice, slash = separate experiments, compound 2: seven experiments; for activity in the ip M5076 reticulum cell sarcoma assay: in words, based on Tables C and D
Description: Another chemosensitive tumor model is intraperitoneally (ip) implanted M5076 reticulum cell sarcoma in mice. In this system B6D2F1 female mice are inoculated with 0.5 ml of a 10 percent weight:volume (w:v) brei of M5076 prepared from pooled subcutaneous (sc) tumors excised at about 21 days from c57B1/6 donor mice. Drugs are administered ip. Daily treatment is begun 24 hours after implantation and is continued for ten days. The treatment regimen for M5076 is more prolonged than for P388 because of the slower growth rate and longer control survival time of the M5076 tumor.

[3] = Table B, B6D2F1 female mice, ip qD × 5
[4] = Table B, ip P388 leukemia mice, ip days 1-5, slash-separated figures are separate experiments, compound 2: 35 experiments

Row | Molecule | MTD (in vivo) [mg/kg] | MTD (maximally tolerated dose) (P388 leukemia; [3]) [mg/kg] | ILS (maximum increase in lifespan) (P388 leukemia; [4]) | ILS max (maximum increase in lifespan) [2] | also measured
1 | CC(C(C)P(c1ccccc1)c1ccccc1)P(c1ccccc1)c1ccccc1 (single isomer, unassigned; (-)) [Compound 42] | 48 |  |  |  | 
2 | [Cl][Au][PH](C[PH]([Au][Cl])(c1ccccc1)c1ccccc1)(c1ccccc1)c1ccccc1 [Compound 1, μ-[1,3-Bis(Diphenylphosphino)Methane]Bis[Chlorogold(I)]] |  | 50 | 62% and 50% |  | pIC50 [1]: 5.22
3 | [Cl][Au][PH](CCC[PH]([Au][Cl])(c1ccccc1)c1ccccc1)(c1ccccc1)c1ccccc1 [Compound 3, μ-[1,3-Bis(Diphenylphosphino)Propane]Bis[Chlorogold(I)]] |  | 8 |  | 69% | MTD (maximally tolerated dose) [2]: 5 mg/kg; activity in the ip M5076 reticulum cell sarcoma assay [2]: good activity; pIC50 [1]: 5.70
4 | [Cl][Au][PH](CCCC[PH]([Au][Cl])(c1ccccc1)c1ccccc1)(c1ccccc1)c1ccccc1 [Compound 4, μ-[1,4-Bis(Diphenylphosphino)Butane]Bis[Chlorogold(I)]] |  |  | 45% and 40% |  | MTD (maximally tolerated dose) (P388 leukemia; mouse, in vivo, ip): 6 mg/kg; pIC50 [1]: 5.52
5 | [Cl][Au-][P+](CCCCC[P+]([Au-][Cl])(c1ccccc1)c1ccccc1)(c1ccccc1)c1ccccc1 [Compound 5, μ-[1,5-Bis(Diphenylphospinio)Pentane]Bis[Chlorogold(I)]] |  | 4 | 55% |  | pIC50 [1]: 5.70
6 | [Cl][Au-][P+](CCCCCC[P+]([Au-][Cl])(c1ccccc1)c1ccccc1)(c1ccccc1)c1ccccc1 [Compound 6, μ-[1,6-Bis(Diphenylphosphino)Hexane]Bis[Chlorogold(I)]] |  |  |  |  | ILS (maximum increase in lifespan) (P388 leukemia; mouse, in vivo, ip): 40% and 35%; MTD (maximally tolerated dose) (P388 leukemia; mouse, in vivo, ip): 4 mg/kg; pIC50 [1]: 5.70
7 | [Cl][Au][PH](C=C[PH]([Au][Cl])(c1ccccc1)c1ccccc1)(c1ccccc1)c1ccccc1 [Compound 7, μ-[Cis-1,2-Bis(Diphenylphosphino)Ethylene]Bis[Chlorogold(I)]] |  | 4 | 105% and 77% | 90% | MTD (maximally tolerated dose) [2]: 3 mg/kg; activity in the ip M5076 reticulum cell sarcoma assay [2]: good activity; pIC50 [1]: 5.15
8 | CC(C[PH]([Au][Cl])(c1ccccc1)c1ccccc1)[PH]([Au][Cl])(c1ccccc1)c1ccccc1 (centres unmarked) [Compound 9, μ-[1,2-Bis(Diphenylphosphino)Propane]Bis[Chlorogold(I)]] |  | 6 | 45% and 60% and 35% | 98% | MTD (maximally tolerated dose) [2]: 5 mg/kg; activity in the ip M5076 reticulum cell sarcoma assay [2]: good activity
9 | [Cl][Au]([Cl])([Cl])[PH](CC[PH](c1ccccc1)(c1ccccc1)[Au]([Cl])([Cl])[Cl])(c1ccccc1)c1ccccc1 [Compound 12, μ-[1,2-Bis(Diphenylphosphino)Ethane]Bis[Trichlorogold(III)]] |  | 16 | 95% and 62% | 74% | MTD (maximally tolerated dose) [2]: 8 mg/kg; pIC50 [1]: 5.40
10 | N#C[S][Au][PH](CC[PH]([Au][S]C#N)(c1ccccc1)c1ccccc1)(c1ccccc1)c1ccccc1 [Compound 16] |  | 6 | 36% and 62% and 45% | 52% | MTD (maximally tolerated dose) [2]: 5 mg/kg; activity in the ip M5076 reticulum cell sarcoma assay [2]: good activity
11 | CC(=O)[O][Au][PH](CC[PH]([Au][O]C(C)=O)(c1ccccc1)c1ccccc1)(c1ccccc1)c1ccccc1 [Compound 17, μ-[1,2-Bis(Diphenylphosphino)Ethane]Bis[Acetatogold(I)]] |  | 4 | 73% and 64% | 54% and 67% | MTD (maximally tolerated dose) [2]: 4 mg/kg; activity in the ip M5076 reticulum cell sarcoma assay [2]: good activity
12 | FC(F)(F)[S][Au][PH](CC[PH]([Au][S]C(F)(F)F)(c1ccccc1)c1ccccc1)(c1ccccc1)c1ccccc1 [Compound 18, μ-[1,2-Bis(diphenylphosphino)ethane]Bis[trifluoromethyl-thiogold(I)]] |  |  |  | 70% | 
13 | [Cl][Au][PH](CC[PH](Cc1ccccc1)(Cc1ccccc1)[Au][Cl])(Cc1ccccc1)Cc1ccccc1 [Compound 23, μ-[1,2-Bis(Dibenzylphosphino)Ethane]Bis[Chlorogold (I)]] |  | 4 | 45% and 30% | 40% | MTD (maximally tolerated dose) [2]: 4 mg/kg
14 | CSc1ccc([PH](CC[PH]([Au][Cl])(c2ccc(SC)cc2)c2ccc(SC)cc2)([Au][Cl])c2ccc(SC)cc2)cc1 [Compound 30, μ-[1,2-Bis[Bis(4-Methylthiophenyl)Phosphino]ethane]-Bis[chlorogold(I)]] |  | 8 | 37% and 65% |  | 
15 | [2H]c1c([2H])c([2H])c([PH](CC[PH]([Au][Cl])(c2c([2H])c([2H])c([2H])c([2H])c2[2H])c2c([2H])c([2H])c([2H])c([2H])c2[2H])([Au][Cl])c2c([2H])c([2H])c([2H])c([2H])c2[2H])c([2H])c1[2H] [Compound 31, μ-[1,2-Bis[di(phenyl-d5)phosphino]ethane]bis-[chlorogold(I)]] |  | 6 | 40% and 65% |  | 
16 | c1ccc(P(CCCCP(c2ccccc2)c2ccccc2)c2ccccc2)cc1 [Compound 38, Bis(1,4-diphenylphosphino)butane] | 28 |  |  |  | 
17 | c1ccc(P(CCCCCP(c2ccccc2)c2ccccc2)c2ccccc2)cc1 [Compound 39, Bis (1,5-diphenylphosphino)pentane] | 8 |  |  |  | 
18 | C(=C\P(c1ccccc1)c1ccccc1)/P(c1ccccc1)c1ccccc1 [Compound 41, Trans-bis(1,2-diphenylphosphino)ethylene] | 128 |  |  |  | 
19 | C1CCC(P(CCP(C2CCCCC2)C2CCCCC2)C2CCCCC2)CC1 [Compound 44, 1,2-bis(dicyclohexylphosphino)ethane] | 32 |  |  |  | 
20 | Fc1ccc(P(CCP(c2ccc(F)cc2)c2ccc(F)cc2)c2ccc(F)cc2)cc1 [Compound 45, 1,2-ethanediyl-bis[bis(4-fluorophenyl)phosphine]] | 8 |  |  |  | 
21 | Fc1cccc(P(CCP(c2cccc(F)c2)c2cccc(F)c2)c2cccc(F)c2)c1 [Compound 46, 1,2-Ethanediyl-bis[bis(3-fluorophenyl)phosphine]] | 32 |  |  |  | 
22 | CSc1ccccc1P(CCP(c1ccccc1SC)c1ccccc1SC)c1ccccc1SC [Compound 47, 1,2-ethanediyl-bis[bis(2-methylthiophenyl)phosphine]] | 64 |  |  |  | 
23 | CSc1ccc(P(CCP(c2ccc(SC)cc2)c2ccc(SC)cc2)c2ccc(SC)cc2)cc1 [Compound 48, 1,2-Ethanediyl-Bis[Bis(4-methylthiophenyl)phosphine]] | 32 |  |  |  | 
24 | CCP(CC)CCP(CC)CC [Compound 49] | 64 |  |  |  | 
25 | CCP(CC)CCP(CC)CC [Compound 50] |  |  |  |  | MTD (maximally tolerated dose) (P388 leukemia; Table BI, B6D2F1 female mice, ip qD × 5): 128 mg/kg; ILS (maximum increase in lifespan) (P388 leukemia; Table BI, ip P388 leukemia mice, ip days 1-5, slash-separated figures are separate experiments, compound 33: 41 experiments): 55%
26 | μ-[1,2-Bis[Bis(2-Methylthiophenyl)Phosphino]Ethane]Bis[Chlorogold(I)] [Compound 28] |  | 8 |  |  | 
